Assays:
[1] = Solid form stability under humidity or vacuum/heat; format: physicochemical
Experimental: Treatment of Form 5 at 40° C., 75% relative humidity for 6 days provided mainly Form 4.
Treatment of Form 4 at 50° C. under vacuum and inert atmosphere for 5 days provided mainly Form 4.

[2] = Compound 1, Form 1 and Form 5 interconversion study (slurry in saturated solutions, XRPD); format: physicochemical; conditions: conclusion from Table 5 interconversion study
Experimental: Saturated solutions of Compound 1, Form 1, in EtOH, MTBE, and isopropyl acetate at 50° C. were prepared. About 6 mg of Compound 1, Form 1, and Compound 1, Form 5, were weighed into each saturated solutions, and the resulting suspensions were slurried for 2 days at corresponding temperature. The resulting solids were sampled for XRPD analysis.

CNc1nc(NC2CCN(Cc3ccc4c(cc(C#N)n4C[C@H](C)N4CCN(S(C)(=O)=O)CC4)c3C)CC2)c2cc(CC(F)(F)F)sc2n1 [Compound 1, Form 5, (S)-4-methyl-5-((4-((2-(methylamino)-6-(2,2,2-trifluoroethyl)thieno[2,3-d]pyrimidin-4-yl)amino)piperidin-1-yl)methyl)-1-(2-(4-(methylsulfonyl)piperazin-1-yl)propyl)-1H-indole-2-carbonitrile]
Solid form after treatment ([1]; 40° C., 75% relative humidity, 6 days): mainly Form 4

CNc1nc(NC2CCN(Cc3ccc4c(cc(C#N)n4C[C@H](C)N4CCN(S(C)(=O)=O)CC4)c3C)CC2)c2cc(CC(F)(F)F)sc2n1 [Compound 1, Form 4, (S)-4-methyl-5-((4-((2-(methylamino)-6-(2,2,2-trifluoroethyl)thieno[2,3-d]pyrimidin-4-yl)amino)piperidin-1-yl)methyl)-1-(2-(4-(methylsulfonyl)piperazin-1-yl)propyl)-1H-indole-2-carbonitrile]
Solid form after treatment ([1]; 50° C. under vacuum and inert atmosphere, 5 days): mainly Form 4

CNc1nc(NC2CCN(Cc3ccc4c(cc(C#N)n4C[C@H](C)N4CCN(S(C)(=O)=O)CC4)c3C)CC2)c2cc(CC(F)(F)F)sc2n1 [Compound 1, Form 1, (S)-4-methyl-5-((4-((2-(methylamino)-6-(2,2,2-trifluoroethyl)thieno[2,3-d]pyrimidin-4-yl)amino)piperidin-1-yl)methyl)-1-(2-(4-(methylsulfonyl)piperazin-1-yl)propyl)-1H-indole-2-carbonitrile]
Thermodynamic stability of crystalline form [2]: thermodynamically stable crystalline form

From US12410184B2, “Crystalline forms of a menin inhibitor” (Kura Oncology, Inc., priority 2023, dated 2025)
